{"source": "patent US10450260B2", "about": "“NO- and H2S-releasing compounds” (RESEARCH FOUNDATION OF THE CITY UNIVERSITY OF NEW YORK, priority 2011, dated 2019)", "key": {"[1]": {"tested_on": "HT-29 colon cancer cells", "assay": "Apoptosis, Annexin V staining and flow cytometry", "type": "cell-based, human", "experimental": "(§1) Growth inhibition was measured using a colorimetric MTT assay kit (Roche, Indianapolis, Ind.). Proliferation (PCNA) was assessed using an ELISA kit from Calbiochem, (La Jolla, Calif.). Cell cycle phase distributions and apoptosis of control and treated cells were determined as previously described. All methods are described in Chattopadhyay et al., Biochemical Pharmacology, 2012, 83(6), 715-722."}, "[2]": {"tested_on": "MDA-MB-231 (ER−) breast cancer cell xenograft", "assay": "MDA-MB-231 xenograft in athymic nude mice", "type": "in vivo, mouse", "from_the_text": "(§2) Male athymic nude (NU/NU) mice, age 5 weeks, were purchased from Charles River Laboratories, Inc., (Wilmington, Mass.) and were housed according to institutional and NIH guidelines.\n(§3) Human colon (SW480), Breast (MCF-7, MDA-MB-231), and pancreas (MIA PaCa2) cancer cells (2×10^6) suspended in Matrigel (BD Biosciences, San Jose, Calif.) 50% v/v were inoculated subcutaneously in the right flanks of each mouse (10 mice per group) using a 1-mL syringe and 22-gauge needles. After 10 days the animals from each implanted cell line were randomly divided into 2 groups (N=5/group) and gavaged daily with either vehicle (1% methylcelloluse) or NOSH-naproxen (100 mg/kg) or NOSH (100 mg/kg), the ADT-OH-butyl nitrate compound that releases H2S and NO, in the case of colon cancer xenografts; or NOSH-aspirin (100 mg/kg body weight) in the breast and pancreatic cancers groups. The tumor size was measured every other day using electronic calipers, the tumor volumes were calculated using the following formula: length×width^2/2. The weights of the mice were also recorded every 3 days. Twenty-seven (27) to thirty (30) days post inoculation, the mice were sacrificed, the tumors collected, weighed, and photographed."}, "[3]": {"tested_on": "COX-1", "assay": "Western blot of COX-1 in paw exudates", "type": "in vivo, rat", "conditions": "NOSH-1 at 2 doses one hour before carrageenan", "experimental": "(§4) Exudates (oedema fluid) and some tissue were homogenized in lysis buffer (0.1% Triton X-100, 50 μM pepstatin, 0.2 mM leupeptin, 1 μg/mL aprotinin, 10 mg/ml phenylmethylsulfonyl fluoride, 50 mM Tris, and 10 mM EDTA). Samples were then centrifuged, and the protein concentration of the supernatant was determined by colorimetric assay (Bio-Rad, Hercules, Calif.). Protein (30 μg) was separated on a 10% polyacrylamide gel and then transferred to a nitrocellulose membrane (Bio-Rad, Hercules, Calif.). Proteins were probed with monoclonal mouse antibody against COX-1 and COX-2 (1:500; Cayman Chemical, Ann Arbor, Mich.). The membrane was then incubated with a goat anti-mouse IgG secondary antibody conjugated to horseradish peroxidase (Santacruz Biotechnology, Santa Cruz, Calif.). A chemiluminescence reagent (Amersham Pittsburg, Pa.) was added to visualize the labeling according to the manufacturer's instructions."}, "[4]": {"tested_on": "HT-29 colon cancer cells", "assay": "Cell proliferation, PCNA expression", "type": "cell-based, human", "conditions": "24 hours", "experimental": "as §1"}, "[5]": {"tested_on": "COX-2", "assay": "Western blot of COX-2 in paw exudates", "type": "in vivo, rat", "conditions": "NOSH-1 at 2 doses one hour before carrageenan", "experimental": "as §4"}, "[6]": {"tested_on": "HT-29 colon cancer cells", "assay": "Cell cycle analysis, PI staining and flow cytometry", "type": "cell-based, human", "experimental": "as §1"}, "[7]": {"tested_on": "MIA PaCa2 pancreatic cancer cell xenograft", "assay": "MIA PaCa2 xenograft in athymic nude mice", "type": "in vivo, mouse", "from_the_text": "as §2, §3"}, "[8]": {"tested_on": "SW480 colon cancer cell xenograft", "assay": "SW480 xenograft in athymic nude mice", "type": "in vivo, mouse", "from_the_text": "as §2, §3"}, "[9]": {"conditions": "100 mg/kg daily, day 30, vs control"}}, "note": "Entries after “also recorded” stand apart in the source; their conditions may differ.", "data": [{"smiles": "O=C(CCCO[N+](=O)[O-])Oc1ccccc1C(=O)Oc1ccc(-c2cc(=S)ss2)cc1", "note": "[NOSH-1, 4-(3-thioxo-3H-1,2-dithiol-5-yl)phenyl 2-((4-(nitrooxy)butanoyl)oxy)benzoate]", "values": [{"measurement": "cells in early apoptotic phase", "setting": "[1]; 0.5×IC50, 24 hours", "result": "24.7±1.4", "unit": "%"}, {"measurement": "cells in early apoptotic phase", "setting": "[1]; 1×IC50, 24 hours", "result": "32.8±2.1", "unit": "%"}, {"measurement": "cells in early apoptotic phase", "setting": "[1]; 2×IC50, 24 hours", "result": "55.9±3.3", "unit": "%"}, {"measurement": "mean tumor volume", "setting": "[2]; 100 mg/kg daily gavage, end of study, control 1886±200", "result": "35±9", "unit": "mm^3"}, {"measurement": "reduction of tumor mass", "setting": "[2]; 100 mg/kg daily, day 27, vs control", "result": 91, "unit": "%"}, {"measurement": "average tumor mass", "setting": "[2]; 100 mg/kg daily, day 27, control 1.2±0.33", "result": "0.11 ± 0.058", "unit": "g"}, {"measurement": "mean reduction of tumor volume", "setting": "[2]; 100 mg/kg daily, vs control", "result": 98, "unit": "%"}, {"measurement": "COX-1 expression in paw exudates induced by carrageenan", "setting": "[3]", "result": "inhibited induction; also recorded: inhibited to the same extent"}, {"measurement": "reduction of PCNA expression", "setting": "[4]; 0.5×IC50 (25 nM)", "result": "18.2±1.5", "unit": "%"}, {"measurement": "reduction of PCNA expression", "setting": "[4]; 1×IC50 (50 nM)", "result": "50.3±3.2", "unit": "%"}, {"measurement": "reduction of PCNA expression", "setting": "[4]; 2×IC50 (100 nM)", "result": "77.4±2.2", "unit": "%"}, {"measurement": "COX-2 expression in paw exudates induced by carrageenan", "setting": "[5]", "result": "inhibited induction; also recorded: dose-dependently inhibited"}, {"measurement": "cell population in G2/M phase", "setting": "[6]; 1×IC50, 24 hours, control 26.9±2.2", "result": "15.4±2.6", "unit": "%"}, {"measurement": "cell population in S phase", "setting": "[6]; 1×IC50, 24 hours, control 30.2±2.3%", "result": "22.6±1.3", "unit": "%"}, {"measurement": "cell population in G0/G1 phase", "setting": "[6]; 1×IC50, 24 hours, control 42.9±2%", "result": "62.0±2.3", "unit": "%"}, {"measurement": "cell population in G0/G1 phase", "setting": "[6]; 2×IC50, 24 hours", "result": "74.2±1.2", "unit": "%"}, {"measurement": "cell population in G2/M phase", "setting": "[6]; 2×IC50, 24 hours", "result": "9.5±1.8", "unit": "%"}, {"measurement": "cell population in S phase", "setting": "[6]; 2×IC50, 24 hours", "result": "16.3±1.2"}, {"measurement": "mean tumor volume", "setting": "[7]; 100 mg/kg daily gavage, end of study, control 3265±476", "result": "285±117", "unit": "mm^3"}, {"measurement": "reduction of tumor mass", "setting": "[7]; [9]", "result": 75, "unit": "%"}, {"measurement": "average tumor mass", "setting": "[7]; 100 mg/kg daily, day 30, control 2.45±2.7", "result": "0.61 ± 0.29", "unit": "g"}, {"measurement": "mean reduction of tumor volume", "setting": "[7]; 100 mg/kg daily, vs control", "result": 91, "unit": "%"}]}, {"smiles": "CC(C(=O)Oc1ccc(-c2cc(=S)ss2)cc1)c1ccc2cc(OC(=O)CCCO[N+](=O)[O-])ccc2c1", "note": "(centres unmarked) [NOSH-7, 6-(1-oxo-1-(4-(3-thioxo-3H-1,2-dithiol-5-yl)phenoxy)propan-2-yl)naphthalen-2-yl 4-(nitrooxy)butanoate]", "values": [{"measurement": "mean tumor volume", "setting": "[8]; 100 mg/kg daily gavage, end of study, control 2098±603", "result": "379±73", "unit": "mm^3"}, {"measurement": "reduction of tumor mass", "setting": "[8]; [9]", "result": 55, "unit": "%"}, {"measurement": "average tumor mass", "setting": "[8]; 100 mg/kg daily, day 30, control 1.42±0.48", "result": "0.63 ± 0.11", "unit": "g"}, {"measurement": "mean reduction of tumor volume", "setting": "[8]; 100 mg/kg daily, vs control", "result": 82, "unit": "%"}]}]}
